PubChem BioAssay AID2060325 (Molecular Pharmacology Branch, DTP, NCI, 2025)
“And” between values parts separate entries of the source, which are not always exact repeats. Identical values can stand only once.

Test system: SK-OV-3 multi-cell spheroids, viability
Experiment: Anticancer human tumor SK-OV-3 cell line growth inhibition [IpAb];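 as to viability, T/C: viability read after seven days of drug exposure; percent of DMSO vehicle control luminescence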
Settings: for viability, T/C: stronger effect = lower value
In short: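 Spheroids of 60% malignant cells, 25% HUVEC and 15% MSC were exposed to targeted agents combined with ipatasertib or abemaciclib. Doses started at or near clinical Cmax (10 microM when unknown) and fell in half-log steps.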

[1] = curve of first compound, second compound 0.1 µM
[2] = curve of first compound, second compound 0.316 µM
[3] = curve of first compound, second compound 1 µM
[4] = curve of first compound, second compound 3.16 µM
[5] = curve of first compound, second compound 10 µM
[6] = second compound 0.1 µM, first compound 0.00949 µM
[7] = second compound 0.1 µM, first compound 0.03 µM
[8] = second compound 0.1 µM, first compound 0.0949 µM
[9] = second compound 0.1 µM, first compound 0.3 µM
[10] = second compound 0.316 µM, first compound 0.00949 µM
[11] = second compound 0.316 µM, first compound 0.03 µM
[12] = second compound 0.316 µM, first compound 0.0949 µM
[13] = second compound 0.316 µM, first compound 0.3 µM
[14] = second compound 1 µM, first compound 0.00949 µM
[15] = second compound 1 µM, first compound 0.03 µM
[16] = second compound 1 µM, first compound 0.0949 µM
[17] = second compound 1 µM, first compound 0.3 µM
[18] = second compound 3.16 µM, first compound 0.00949 µM
[19] = second compound 3.16 µM, first compound 0.03 µM
[20] = second compound 3.16 µM, first compound 0.0949 µM
[21] = second compound 3.16 µM, first compound 0.3 µM
[22] = second compound 10 µM, first compound 0.00949 µM
[23] = second compound 10 µM, first compound 0.03 µM
[24] = second compound 10 µM, first compound 0.0949 µM
[25] = second compound 10 µM, first compound 0.3 µM

| Structure (SMILES) | IC50 [1] [nM] | IC50 [2] [nM] | IC50 [3] [nM] | IC50 [4] [nM] | IC50 [5] [nM] | viability, T/C [6] [%] | viability, T/C [7] [%] | viability, T/C [8] [%] | viability, T/C [9] [%] | viability, T/C [10] [%] | viability, T/C [11] [%] | viability, T/C [12] [%] | viability, T/C [13] [%] | viability, T/C [14] [%] | viability, T/C [15] [%] | viability, T/C [16] [%] | viability, T/C [17] [%] | viability, T/C [18] [%] | viability, T/C [19] [%] | viability, T/C [20] [%] | further results |
| --- | --- | --- | --- | --- | --- | --- | --- | --- | --- | --- | --- | --- | --- | --- | --- | --- | --- | --- | --- | --- | --- |
| CC(C)(C)c1cnc(CSc2cnc(NC(=O)C3CCNCC3)s2)o1 + CC(C)NCC(C(=O)N1CCN(c2ncnc3c2C(C)CC3O)CC1)c1ccc(Cl)cc1 | 168 | 118 | < 9.49 | < 9.49 | < 9.49 | 74.8 | 92 | 89.1 | 14.5 | 49.5 | 50.8 | 73.7 | 17.3 | 22.3 | 30.2 | 41.9 | 11.7 | 18 | 22.6 | 28.4 | viability, T/C (second compound 0.1 µM, first compound 0.949 µM): 0.65%; viability, T/C (second compound 0.1 µM, first compound 3 µM): 0.75%; viability, T/C (second compound 0.316 µM, first compound 0.949 µM): 0.41%; viability, T/C (second compound 0.316 µM, first compound 3 µM): 0.65%; viability, T/C (second compound 1 µM, first compound 0.949 µM): 0.3%; viability, T/C (second compound 1 µM, first compound 3 µM): 0.62%; viability, T/C [21]: 9.86%; viability, T/C (second compound 3.16 µM, first compound 0.949 µM): 0.58%; viability, T/C (second compound 3.16 µM, first compound 3 µM): 0.66%; viability, T/C [22]: 11.3%; viability, T/C [23]: 11.4%; viability, T/C [24]: 14.2%; viability, T/C [25]: 2.96%; viability, T/C (second compound 10 µM, first compound 0.949 µM): 0.36%; viability, T/C (second compound 10 µM, first compound 3 µM): 0.65% |
| CC(=O)c1c(C)c2cnc(Nc3ccc(N4CCNCC4)cn3)nc2n(C2CCCC2)c1=O + CC(C)NCC(C(=O)N1CCN(c2ncnc3c2C(C)CC3O)CC1)c1ccc(Cl)cc1 | 9.88 | < 0.949 | < 0.949 | < 0.949 | < 0.949 | 50.6 | 40.2 | 35.8 | 34.2 | 28 | 25.6 | 23.9 | 26.2 | 17.6 | 14.7 | 15.9 | 18.5 | 14.1 | 15.6 | 13.4 | viability, T/C (second compound 0.1 µM, first compound 0.000949 µM): 70.5%; viability, T/C (second compound 0.1 µM, first compound 0.003 µM): 62.3%; viability, T/C (second compound 0.316 µM, first compound 0.000949 µM): 36.3%; viability, T/C (second compound 0.316 µM, first compound 0.003 µM): 32.9%; viability, T/C (second compound 1 µM, first compound 0.000949 µM): 20.3%; viability, T/C (second compound 1 µM, first compound 0.003 µM): 18.3%; viability, T/C (second compound 3.16 µM, first compound 0.000949 µM): 16.5%; viability, T/C (second compound 3.16 µM, first compound 0.003 µM): 14.7%; viability, T/C [21]: 13.5%; viability, T/C (second compound 10 µM, first compound 0.000949 µM): 9.94%; viability, T/C (second compound 10 µM, first compound 0.003 µM): 9.77%; viability, T/C [22]: 8.83%; viability, T/C [23]: 8.26%; viability, T/C [24]: 10.6%; viability, T/C [25]: 10.5% |
| CC1(C)CCC(CN2CCN(c3ccc(C(=O)NS(=O)(=O)c4ccc(NCC5CCOCC5)c([N+](=O)[O-])c4)c(Oc4cnc5[nH]ccc5c4)c3)CC2)=C(c2ccc(Cl)cc2)C1 |  |  |  |  |  |  |  |  |  |  |  |  |  |  |  |  |  |  |  |  | viability, T/C (compound 0.0316 µM): 108% and 100%; viability, T/C (compound 0.1 µM): 105% and 103%; viability, T/C (compound 0.316 µM): 104% and 112%; viability, T/C (compound 1 µM): 96.4% and 94.5%; viability, T/C (compound 3.16 µM): 61.8% and 62.1%; viability, T/C (compound 10 µM): 24.5% and 5.23%; IC50 (curve of compound): 4560 nM and 4020 nM |
